Patent US10251395B2, “Substituted furano-/thienocycloalkylamino-2-pyrimidine derivatives and use thereof for controlling undesired plant growth” (Bayer CropScience Aktiengesellschaft, priority 2015, dated 2019)

Legend:
Format in all cases: in vivo
Echinochloa crus-galli [1] = assay: Pre-emergence herbicidal effect; details: Dosage 320 g/ha, scored visually after 3 weeks
Source text: (§1) Seeds of monocotyledonous and dicotyledonous weed plants and crop plants are laid out in wood-fiber pots in sandy loam and covered with soil. The compounds of the invention, formulated in the form of wettable powders (WP) or as emulsion concentrates (EC), are then applied to the surface of the covering soil as aqueous suspension or emulsion at a water application rate equating to 600 to 800 L/ha with addition of 0.2% wetting agent.
(§2) After the treatment, the pots are placed in a greenhouse and kept under good growth conditions for the trial plants. The damage to the test plants is scored visually after a test period of 3 weeks by comparison with untreated controls (herbicidal activity in percent (%): 100% activity=the plants have died, 0% activity=like control plants).
(§3) • ABUTH: Abutilon theophrasti ALOMY: Alopecurus myosuroides • AMARE: Amaranthus retroflexus AVEFA: Avena fatua • CYPES: Cyperus esculentus ECHCG: Echinochloa crus-galli • LOLMU: Lolium multiflorum MATIN: Matricaria inodora • PHBPU: Ipomoea purpurea POLCO: Polygonum convolvulus • SETVI: Setaria viridis STEME: Stellaria media • VERPE: Veronica persica VIOTR: Viola tricolor

Veronica persica [2] = assay: Pre-emergence herbicidal effect; details: scored visually after 3 weeks
Source text: as §1, §2, §3

Polygonum convolvulus = assay: Pre-emergence herbicidal effect; details: scored visually after 3 weeks
Source text: as §1, §2, §3

Matricaria inodora [3] = assay: Pre-emergence herbicidal effect; details: scored visually after 3 weeks
Source text: as §1, §2, §3

Lolium multiflorum = assay: Pre-emergence herbicidal effect; details: Dosage 320 g/ha, scored visually after 3 weeks
Source text: as §1, §2, §3

Setaria viridis [4] = assay: Pre-emergence herbicidal effect; details: scored visually after 3 weeks
Source text: as §1, §2, §3

Viola tricolor [5] = assay: Pre-emergence herbicidal effect; details: scored visually after 3 weeks
Source text: as §1, §2, §3

Amaranthus retroflexus [6] = assay: Pre-emergence herbicidal effect; details: scored visually after 3 weeks
Source text: as §1, §2, §3

Stellaria media [7] = assay: Pre-emergence herbicidal effect; details: scored visually after 3 weeks
Source text: as §1, §2, §3

Echinochloa crus-galli [8] = assay: Post-emergence herbicidal effect; details: 320 g/ha, assessed visually after about 3 weeks vs untreated controls
Source text: (§4) • ABUTH: Abutilon theophrasti ALOMY: Alopecurus myosuroides • AMARE: Amaranthus retroflexus AVEFA: Avena fatua • CYPES: Cyperus esculentus ECHCG: Echinochloa crus-galli • LOLMU: Lolium multiflorum MATIN: Matricaria inodora • PHBPU: Ipomoea purpurea POLCO: Polygonum convolvulus • SETVI: Setaria viridis STEME: Stellaria media • VERPE: Veronica persica VIOTR: Viola tricolor Seeds of monocotyledonous and dicotyledonous weed and crop plants are laid out in sandy loam in wood-fiber pots, covered with soil and cultivated in a greenhouse under good growth conditions. 2 to 3 weeks after sowing, the test plants are treated at the one-leaf stage. The compounds of the invention, formulated in the form of wettable powders (WP) or as emulsion concentrates (EC), are then sprayed onto the green parts of the plants as aqueous suspension or emulsion at a water application rate equating to 600 to 800 L/ha with addition of 0.2% wetting agent. After the test plants have been left to stand in the greenhouse under optimal growth conditions for about 3 weeks, the action of the preparations is assessed visually in comparison to untreated controls (herbicidal action in percent (%): 100% activity=the plants have died, 0% activity=like control plants).

Viola tricolor [9] = assay: Post-emergence herbicidal effect; details: assessed visually after about 3 weeks vs untreated controls
Source text: as §4

Amaranthus retroflexus [10] = assay: Post-emergence herbicidal effect; details: assessed visually after about 3 weeks vs untreated controls
Source text: as §4

Stellaria media [11] = assay: Post-emergence herbicidal effect; details: assessed visually after about 3 weeks vs untreated controls
Source text: as §4

Alopecurus myosuroides = assay: Pre-emergence herbicidal effect; details: scored visually after 3 weeks
Source text: as §1, §2, §3

Ipomoea purpurea = assay: Post-emergence herbicidal effect; details: assessed visually after about 3 weeks vs untreated controls
Source text: as §4

Veronica persica [12] = assay: Post-emergence herbicidal effect; details: 320 g/ha, assessed visually after about 3 weeks vs untreated controls
Source text: as §4

Abutilon theophrasti = assay: Post-emergence herbicidal effect; details: assessed visually after about 3 weeks vs untreated controls
Source text: as §4

Setaria viridis [13] = assay: Post-emergence herbicidal effect; details: assessed visually after about 3 weeks vs untreated controls
Source text: as §4

Matricaria inodora [14] = assay: Post-emergence herbicidal effect; details: 320 g/ha, assessed visually after about 3 weeks vs untreated controls
Source text: as §4

| SMILES | ECHCG pre-emergence efficacy (herbicidal activity) (Echinochloa crus-galli [1]) [%] | VERPE pre-emergence efficacy (herbicidal activity) (Veronica persica [2]; Dosage 80 g/ha) [%] | VERPE pre-emergence efficacy (herbicidal activity) (Veronica persica [2]; Dosage 320 g/ha) [%] | POLCO pre-emergence efficacy (herbicidal activity) (Polygonum convolvulus; Dosage 320 g/ha) [%] | MATIN pre-emergence efficacy (herbicidal activity) (Matricaria inodora [3]; Dosage 80 g/ha) [%] | MATIN pre-emergence efficacy (herbicidal activity) (Matricaria inodora [3]; Dosage 320 g/ha) [%] | LOLMU pre-emergence efficacy (herbicidal activity) (Lolium multiflorum) [%] | SETVI pre-emergence efficacy (herbicidal activity) (Setaria viridis [4]; Dosage 80 g/ha) [%] | SETVI pre-emergence efficacy (herbicidal activity) (Setaria viridis [4]; Dosage 320 g/ha) [%] | VIOTR pre-emergence efficacy (herbicidal activity) (Viola tricolor [5]; Dosage 80 g/ha) [%] | VIOTR pre-emergence efficacy (herbicidal activity) (Viola tricolor [5]; Dosage 320 g/ha) [%] | AMARE pre-emergence efficacy (herbicidal activity) (Amaranthus retroflexus [6]; Dosage 320 g/ha) [%] | STEME pre-emergence efficacy (herbicidal activity) (Stellaria media [7]; Dosage 80 g/ha) [%] | STEME pre-emergence efficacy (herbicidal activity) (Stellaria media [7]; Dosage 320 g/ha) [%] | post-emergence efficacy VIOTR (Viola tricolor [9]; 320 g/ha) [%] | post-emergence efficacy STEME (Stellaria media [11]; 80 g/ha) [%] | post-emergence efficacy STEME (Stellaria media [11]; 320 g/ha) [%] | post-emergence efficacy VERPE (Veronica persica [12]) [%] | post-emergence efficacy ABUTH (Abutilon theophrasti; 320 g/ha) [%] | post-emergence efficacy VIOTR (Viola tricolor [9]; 80 g/ha) [%] | other results |
| --- | --- | --- | --- | --- | --- | --- | --- | --- | --- | --- | --- | --- | --- | --- | --- | --- | --- | --- | --- | --- | --- |
| Nc1nc(NC2CCCc3sccc32)ncc1C(F)(F)F (racemic) [compound 70] | 100 | 90 | 100 | 100 | 100 | 100 | 100 | 100 | 100 | 100 | 100 | 100 | 100 | 100 | 100 | 100 | 100 |  |  |  | AMARE pre-emergence efficacy (herbicidal activity) (Amaranthus retroflexus [6]; Dosage 80 g/ha): 100%; post-emergence efficacy ECHCG (Echinochloa crus-galli [8]): 80%; post-emergence efficacy AMARE (Amaranthus retroflexus [10]; 80 g/ha): 40%; post-emergence efficacy AMARE (Amaranthus retroflexus [10]; 320 g/ha): 100% |
| C=C(c1cnc(NC2CCCc3sc(C)cc32)nc1N)C(F)(F)F (racemic) [compound 275] | 100 | 100 | 100 | 70 | 90 | 100 | 60 | 90 | 100 | 100 | 100 | 100 | 100 | 100 | 90 | 90 | 90 | 90 | 90 | 70 | ALOMY pre-emergence efficacy (herbicidal activity) (Alopecurus myosuroides; Dosage 80 g/ha): 80%; ALOMY pre-emergence efficacy (herbicidal activity) (Alopecurus myosuroides; Dosage 320 g/ha): 80%; AMARE pre-emergence efficacy (herbicidal activity) (Amaranthus retroflexus [6]; Dosage 80 g/ha): 70%; post-emergence efficacy PHBPU (Ipomoea purpurea; 320 g/ha): 70%; post-emergence efficacy ABUTH (Abutilon theophrasti; 80 g/ha): 80%; post-emergence efficacy SETVI (Setaria viridis [13]; 80 g/ha): 70%; post-emergence efficacy SETVI (Setaria viridis [13]; 320 g/ha): 80% |
| CCOC(=O)c1cnc(NC2CCCc3sc(C)cc32)nc1N (racemic) [compound 293] | 80 |  | 100 |  | 70 | 100 | 60 |  | 100 |  | 100 | 100 | 100 | 100 | 90 | 80 | 100 | 90 |  | 70 | ALOMY pre-emergence efficacy (herbicidal activity) (Alopecurus myosuroides; Dosage 320 g/ha): 70%; post-emergence efficacy PHBPU (Ipomoea purpurea; 80 g/ha): 80%; post-emergence efficacy PHBPU (Ipomoea purpurea; 320 g/ha): 90% |
| Cc1cc2c(s1)CCCC2Nc1ncc(-c2ccccc2)c(N)n1 (racemic) [compound 296] |  | 100 | 100 |  | 90 | 100 |  | 70 | 100 | 60 | 100 |  |  | 90 | 80 |  |  | 90 | 70 | 70 | post-emergence efficacy MATIN (Matricaria inodora [14]): 60%; post-emergence efficacy SETVI (Setaria viridis [13]; 80 g/ha): 40%; post-emergence efficacy SETVI (Setaria viridis [13]; 320 g/ha): 70%; post-emergence efficacy AMARE (Amaranthus retroflexus [10]; 80 g/ha): 60%; post-emergence efficacy AMARE (Amaranthus retroflexus [10]; 320 g/ha): 90% |
| CN=C(C)c1cnc(NC2CCCc3sc(C)cc32)nc1N (stereo not shown) [compound 352] |  | 100 | 100 | 60 | 90 | 90 | 60 |  | 100 | 80 | 100 | 100 | 100 | 100 | 90 |  |  | 100 | 90 | 80 | POLCO pre-emergence efficacy (herbicidal activity) (Polygonum convolvulus; Dosage 80 g/ha): 60%; post-emergence efficacy ABUTH (Abutilon theophrasti; 80 g/ha): 80%; post-emergence efficacy SETVI (Setaria viridis [13]; 320 g/ha): 80% |
